Source: ChEMBL document CHEMBL4706659, “Design, synthesis and biological evaluation of novel 2,4-diaryl pyrimidine derivatives as selective EGFR inhibitors” (Eur J Med Chem, 2021)

Columns and labels:
HK-2 = assay: Cytotoxicity against HK-2 cells assessed as reduction in cell viability by MTT assay; type: cell-based; conditions: Homo sapiens
[1] = Selectivity ratio of IC50 for human L02 cells to IC50 for antiproliferative activity against human NCI-H1975 cells; type: toxicity, cell-based; conditions: L02 cells versus NCI-H1975 cells, read-out: Ratio IC50
[2] = AUC (0 to infinity) in Sprague-Dawley rat at 10 mg/kg, po administered as single dose; type: ADME, organism-based; set-up: time infinity, route oral, dose 10 mg/kg; conditions: in vivo
NCI-H1975 [3] = assay: Induction of mitochondrial membrane potential loss in human NCI-H1975 cells harboring EGFR T790M/L858R mutant assessed as cells with intact mitochondrial membrane potential at 1 nM measured after 24 hrs by JC1 staining based fluorescence microscopic analysis (reference value: 94.51%); type: functional
NCI-H1975 [4] = assay: Induction of apoptosis in human NCI-H1975 cells harboring EGFR T790M/L858R mutant assessed as viable cells at 1 nM measured after 72 hrs by Annexin-V-FITC/propidium iodide staining based flow cytometry (reference value: 98.66%); type: functional; conditions: read-out: Activity
NCI-H1975 [5] = assay: Induction of apoptosis in human NCI-H1975 cells harboring EGFR T790M/L858R mutant assessed as necrotic cells at 5 nM measured after 48 hrs by Annexin-V-FITC/propidium iodide staining based flow cytometry (reference value: […]); type: functional
NCI-H1975 [6] = assay: Induction of apoptosis in human NCI-H1975 cells harboring EGFR T790M/L858R mutant assessed as early apoptotic cells at 5 nM measured after 48 hrs by Annexin-V-FITC/propidium iodide staining based flow cytometry (reference value: 0.82%); type: functional
NCI-H1975 [7] = assay: Antimigratory activity against human NCI-H1975 cells harboring EGFR T790M/L858R mutant assessed as inhibition of cell migration at 9 nM measured after 48 hrs by phase contrast microscopic analysis relative to control; type: functional
[8] = Half life in Sprague-Dawley rat at 10 mg/kg, po administered as single dose; type: ADME, organism-based; conditions: in vivo
[9] = Half life in Sprague-Dawley rat at 2 mg/kg, iv administered as single dose; type: ADME, organism-based; conditions: in vivo
NCI-H1975 [10] = assay: Induction of apoptosis in human NCI-H1975 cells harboring EGFR T790M/L858R mutant assessed as late apoptotic cells at 10 nM measured after 48 hrs by Annexin-V-FITC/propidium iodide staining based flow cytometry (reference value: 0.04%); type: functional
NCI-H1975 [11] = assay: Induction of apoptosis in human NCI-H1975 cells harboring EGFR T790M/L858R mutant assessed as viable cells at 10 nM measured after 48 hrs by Annexin-V-FITC/propidium iodide staining based flow cytometry (reference value: 98.63%); type: functional; conditions: read-out: Activity
[12] = Clearance in Sprague-Dawley rat at 2 mg/kg, iv administered as single dose; type: ADME, organism-based; conditions: in vivo
[13] = Tmax in Sprague-Dawley rat at 10 mg/kg, po administered as single dose; type: ADME, organism-based; conditions: in vivo
[14] = Toxicity in nude mouse xenografted with human NCI-H1975 cells harboring EGFR T790M/L858R mutant assessed as mortality at 15 mg/kg, po administered once daily for 7 days relative to control; type: organism-based; conditions: in vivo, time 7 day, read-out: Activity
NCI-H1975 [15] = assay: Induction of apoptosis in human NCI-H1975 cells harboring EGFR T790M/L858R mutant assessed as necrotic cells at 1 nM measured after 48 hrs by Annexin-V-FITC/propidium iodide staining based flow cytometry (reference value: […]); type: functional
NCI-H1975 [16] = assay: Antimigratory activity against human NCI-H1975 cells harboring EGFR T790M/L858R mutant assessed as inhibition of cell migration at 3 nM measured after 24 hrs by phase contrast microscopic analysis relative to control; type: functional
NCI-H1975 [17] = assay: Induction of apoptosis in human NCI-H1975 cells harboring EGFR T790M/L858R mutant assessed as early apoptotic cells at 1 nM measured after 72 hrs by Annexin-V-FITC/propidium iodide staining based flow cytometry (reference value: 0.72%); type: functional
[18] = AUC (0 to t) in Sprague-Dawley rat at 10 mg/kg, po administered as single dose; type: ADME, organism-based; set-up: dose 10 mg/kg; conditions: in vivo
NCI-H292 = assay: Antiproliferative activity against human NCI-H292 cells harboring wild-type EGFR by MTT assay; type: functional, cell-based
NCI-H1975 [19] = assay: Induction of apoptosis in human NCI-H1975 cells harboring EGFR T790M/L858R mutant assessed as viable cells at 5 nM measured after 72 hrs by Annexin-V-FITC/propidium iodide staining based flow cytometry (reference value: 98.66%); type: functional; conditions: read-out: Activity
[20] = Cytotoxicity against HLF cells assessed as reduction in cell viability by MTT assay; type: cell-based; conditions: Homo sapiens
[21] = AUC (0 to infinity) in Sprague-Dawley rat at 2 mg/kg, iv administered as single dose; type: ADME, organism-based; set-up: route intravenous, time infinity, dose 2 mg/kg; conditions: in vivo
Homo sapiens = species on record: Homo sapiens; assay: Selectivity ratio of IC50 for inhibition of recombinant human GST-tagged EGFR expressed in baculovirus expression system to IC50 for inhibition of recombinant human GST-tagged EGFR T790M/L858R double mutant (668 to 1210 residues) expressed in baculovirus expression system
[22] = Selectivity ratio of IC50 for HLF cells to IC50 for antiproliferative activity against human NCI-H1975 cells
L02 = assay: Cytotoxicity against human L02 cells assessed as reduction in cell viability by MTT assay; type: cell-based
NCI-H1975 [23] = assay: Antimigratory activity against human NCI-H1975 cells harboring EGFR T790M/L858R mutant assessed as inhibition of cell migration at 9 nM measured after 24 hrs by phase contrast microscopic analysis relative to control; type: functional
[24] = MRT in Sprague-Dawley rat at 2 mg/kg, iv administered as single dose; type: ADME, organism-based; conditions: in vivo
NCI-H1975 [25] = assay: Induction of apoptosis in human NCI-H1975 cells harboring EGFR T790M/L858R mutant assessed as late apoptotic cells at 10 nM measured after 72 hrs by Annexin-V-FITC/propidium iodide staining based flow cytometry (reference value: 0.13%); type: functional
NCI-H1975 [26] = assay: Induction of apoptosis in human NCI-H1975 cells harboring EGFR T790M/L858R mutant assessed as late apoptotic cells at 5 nM measured after 48 hrs by Annexin-V-FITC/propidium iodide staining based flow cytometry (reference value: 0.04%); type: functional
NCI-H1975 [27] = assay: Induction of apoptosis in human NCI-H1975 cells harboring EGFR T790M/L858R mutant assessed as early apoptotic cells at 10 nM measured after 48 hrs by Annexin-V-FITC/propidium iodide staining based flow cytometry (reference value: 0.82%); type: functional
NCI-H1975 [28] = assay: Induction of apoptosis in human NCI-H1975 cells harboring EGFR T790M/L858R mutant assessed as necrotic cells at 10 nM measured after 72 hrs by Annexin-V-FITC/propidium iodide staining based flow cytometry (reference value: 0.49%); type: functional
NCI-H1975 [29] = assay: Induction of apoptosis in human NCI-H1975 cells harboring EGFR T790M/L858R mutant assessed as viable cells at 10 nM measured after 72 hrs by Annexin-V-FITC/propidium iodide staining based flow cytometry (reference value: 98.66%); type: functional; conditions: read-out: Activity
[30] = biological target: Epidermal growth factor receptor (Homo sapiens, UniProt P00533, L858R); assay: Inhibition of human recombinant GST-tagged EGFR L858R mutant expressed in baculovirus expression system using tyrosine 4 peptide as substrate after 60 mins in presence of ATP FRET based Z'-LYTE assay
Sequence of Epidermal growth factor receptor (P00533 25-1210 L858R limits assumed): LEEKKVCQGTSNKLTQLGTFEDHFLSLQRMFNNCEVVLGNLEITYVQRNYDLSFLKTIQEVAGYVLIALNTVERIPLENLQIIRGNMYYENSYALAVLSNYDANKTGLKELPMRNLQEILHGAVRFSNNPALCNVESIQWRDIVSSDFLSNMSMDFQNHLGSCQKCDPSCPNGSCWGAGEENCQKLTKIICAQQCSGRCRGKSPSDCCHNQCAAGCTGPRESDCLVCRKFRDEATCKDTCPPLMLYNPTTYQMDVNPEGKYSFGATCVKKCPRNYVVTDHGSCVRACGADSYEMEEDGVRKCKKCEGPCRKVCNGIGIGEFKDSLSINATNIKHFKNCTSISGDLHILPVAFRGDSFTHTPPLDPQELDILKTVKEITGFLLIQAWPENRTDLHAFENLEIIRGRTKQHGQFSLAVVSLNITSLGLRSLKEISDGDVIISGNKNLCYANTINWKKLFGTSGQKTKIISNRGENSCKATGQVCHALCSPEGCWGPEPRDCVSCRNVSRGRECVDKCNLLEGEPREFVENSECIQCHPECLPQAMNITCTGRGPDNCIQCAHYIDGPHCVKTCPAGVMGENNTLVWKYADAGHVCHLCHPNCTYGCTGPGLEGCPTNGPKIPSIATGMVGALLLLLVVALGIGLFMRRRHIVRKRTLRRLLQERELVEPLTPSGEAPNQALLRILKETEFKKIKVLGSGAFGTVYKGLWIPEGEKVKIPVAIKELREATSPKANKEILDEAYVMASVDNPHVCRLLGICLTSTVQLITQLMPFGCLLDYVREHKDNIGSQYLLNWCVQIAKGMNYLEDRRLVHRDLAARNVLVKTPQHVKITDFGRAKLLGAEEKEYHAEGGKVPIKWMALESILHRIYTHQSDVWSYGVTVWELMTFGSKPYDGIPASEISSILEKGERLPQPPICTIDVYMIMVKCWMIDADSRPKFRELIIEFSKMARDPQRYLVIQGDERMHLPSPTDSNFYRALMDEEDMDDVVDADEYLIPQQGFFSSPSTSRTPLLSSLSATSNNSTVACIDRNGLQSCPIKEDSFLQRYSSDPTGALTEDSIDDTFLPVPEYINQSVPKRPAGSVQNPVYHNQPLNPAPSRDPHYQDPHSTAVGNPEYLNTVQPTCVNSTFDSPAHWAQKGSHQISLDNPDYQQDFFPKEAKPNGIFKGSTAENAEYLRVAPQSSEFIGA

C=CC(=O)Nc1cc(Nc2nccc(-c3cn(C4CC4)c4ccccc34)n2)c(OC)cc1[S+]([O-])CCN(C)C (centres undefined)
IC50 (HK-2): 5.86 µM | selectivity ratio [1]: 584 | AUC(0-inf) [2]: 722 ng·h/mL | Activity (NCI-H1975 [3]): 80.71% | viability at 0.001 µM (NCI-H1975 [4]): 70.3% | Activity (NCI-H1975 [5]): 7.42% | Activity (NCI-H1975 [6]): 21.73% | inhibition at 0.009 µM (NCI-H1975 [7]): 74% | half-life [8]: 2.51 h | half-life [9]: 0.7 h | Activity (NCI-H1975 [10]): 21.25% | viability at 0.01 µM (NCI-H1975 [11]): 41.1% | clearance [12]: 98.1 mL/min/kg | Tmax [13]: 1.67 h | mortality at 168 h [14]: < 5% | Activity (NCI-H1975 [15]): 5.52% | inhibition at 0.003 µM (NCI-H1975 [16]): 39% | Activity (NCI-H1975 [17]): 17.25% | AUC(0-t) [18]: 676 ng·h/mL | IC50 (NCI-H292): 0.718 µM | viability at 0.005 µM (NCI-H1975 [19]): 52.5% | IC50 [20]: 6.04 µM | AUC(0-inf) [21]: 340 ng·h/mL | Ratio IC50 (Homo sapiens): 15.8 | Ratio IC50 [22]: 755 | IC50 (L02): 4.67 µM | inhibition at 0.009 µM (NCI-H1975 [23]): 47% | MRT [24]: 1.01 h | Activity (NCI-H1975 [25]): 22.53% | Activity (NCI-H1975 [26]): 3.64% | Activity (NCI-H1975 [27]): 15.92% | Activity (NCI-H1975 [28]): 5.38% | viability at 0.01 µM (NCI-H1975 [29]): 27.4% | IC50 [30]: 0.0011 µM
